Data: the NIST ThermoML archive (doi:10.1007/s10765-005-8089-2)

Assay: xn = mol fraction of the nth substance listed
Settings: Liquid, Falling or rolling sphere viscometry

Cc1ccccc1 [toluene] + CCO
viscosity [mPa·s]
Settings | x2 = 0.125 | x2 = 0.25 | x2 = 0.375 | x2 = 0.5 | x2 = 0.625 | x2 = 0.75 | x2 = 0.875
313.15 K, 100000 kPa | – | – | – | – | 1.058 | 1.145 | 1.255
333.15 K, 100 kPa | 0.37 | 0.373 | 0.385 | 0.405 | 0.431 | 0.468 | 0.523
333.15 K, 20000 kPa | 0.433 | 0.437 | 0.45 | 0.47 | 0.501 | 0.544 | 0.603
333.15 K, 40000 kPa | 0.499 | 0.503 | 0.518 | 0.54 | 0.573 | 0.621 | 0.684
333.15 K, 60000 kPa | 0.568 | 0.571 | 0.588 | 0.611 | 0.647 | 0.697 | 0.763
333.15 K, 80000 kPa | 0.639 | 0.643 | 0.662 | 0.686 | 0.724 | 0.776 | 0.844
333.15 K, 100000 kPa | 0.714 | 0.718 | 0.739 | 0.763 | 0.804 | 0.856 | 0.926
353.15 K, 100 kPa | 0.306 | – | – | – | – | – | –
353.15 K, 20000 kPa | 0.358 | 0.356 | 0.361 | 0.372 | 0.39 | 0.415 | 0.453
353.15 K, 40000 kPa | 0.412 | 0.411 | 0.417 | 0.427 | 0.446 | 0.476 | 0.516
353.15 K, 60000 kPa | 0.468 | 0.467 | 0.474 | 0.484 | 0.504 | 0.536 | 0.577
353.15 K, 80000 kPa | 0.526 | 0.525 | 0.532 | 0.541 | 0.564 | 0.597 | 0.64
353.15 K, 100000 kPa | 0.588 | 0.586 | 0.593 | 0.601 | 0.625 | 0.66 | 0.703
